From US20070072831A1, “Integrase inhibitor compounds” (GILEAD SCIENCES, INC., priority 2005, published 2007)
pEC50, pIC50: −log10 of the molar value.

Assays:
HIV integrase = HIV integrase (Human immunodeficiency virus type 1 group M subtype B, UniProt P04585); assay: biochemical
Protocol: Representative compounds of the invention were tested for biological activity by methods including anti-HIV assay, measuring inhibition of HIV-integrase strand transfer catalysis, and cytotoxicity.
HIV Integrase Assay (IC50 Determination)
The HIV Integrase assay is carried out in Reacti-Bind High Binding Capacity Streptavidin coated plates (Pierce # 15502) in 100 μl reactions. The wells of the plate are rinsed once with PBS. Each well is then coated at room temperature for 1 h with 100 μl of 0.14 μM Donor DNA with the following sequence:
After coating, the plate was washed twice with PBS. 3′processing of the Donor DNA is started by adding 80 μl of Integrase/buffer mixture (25 mM HEPES, pH 7.3, 12.5 mM DTT, 93.75 mM NaCl, 12.5 mM MgCl2, 1.25% Glycerol, 0.3125 uM integrase) to each well. 3′processing is allowed to proceed for 30 min at 37° C., after which, 10 μl of test compound and 10 μl of 2.5 uM DIG-labeled Target DNA with the following sequence:
are added to each well to allow strand transfer to proceed for 30 min at 37° C. The plate is then washed three times with 2×SSC for 5 min and rinsed once with PBS. For detection of integrated product, 100 μl of a 1/2000 dilution of HRP-conjugated anti-DIG antibody (Pierce #31468) are added to each well and incubated for 1 hour. The plate was then washed three times for 5 min each, with 0.05% Tween-20 in PBS. For signal development and amplification, 100 μl of SuperSignal ELISA Femto Substrate (Pierce #37075) are added to each well. Chemiluminescence (in relative light units) is read immediately at 425 nm in the SPECTRAmax GEMINI Microplate Spectrophotometer using the end point mode at 5 sec per well.
For IC50 determinations, eight concentrations of test compounds in a 1/2.2 dilution series are used.

HIV-IIIb = assay: Antiviral assay in MT-4 cells infected with HIV-IIIb; assay type: cell-based; settings: MT4, 120 h; MT-4 cells, HIV-IIIb, 5 days; read-out: EC50 Range MT-4
Protocol: See: Wolfe, etal J. Virol.
Antiviral Assays in MT2 and MT4 Cells
For the antiviral assay utilizing MT-2 cells, 50 μl of 2× test concentration of 5-fold serially diluted compound in culture medium with 10% FBS was added to each well of a 96-well plate (9 concentrations) in triplicate. MT-2 cells were infected with HIV-IIIb at a multiplicity of infection (m.o.i) of 0.01 for 3 hours. Fifty microliters of infected cell suspension in culture medium with 10% FBS (˜1.5×10^4 cells) was then added to each well containing 50 μl of diluted compound. The plates were then incubated at 37° C. for 5 days. For the antiviral assay utilizing MT-4 cells, 20 μl of 2× test concentration of 5-fold serially diluted compound in culture medium with 10% FBS was added to each well of a 384-well plate (7 concentrations) in triplicate. MT-4 cells were next mixed with HIV-IIIb at an m.o.i. of 0.1 and 20 μl of virus/cell mixture (˜2000 cells) was immediately added to each well containing 20 μl of diluted compound. The plates were then incubated at 37° C. for 5 days. After 5 days of incubation, 100 μl of CellTiter-Glo™ Reagent (catalog # G7571, Promega Biosciences, Inc., Madison, Wis.) was added to each well containing MT-2 cells and 40 μl to each well containing MT-4 cells. Cell lysis was carried out by incubating at room temperature for 10 min and then chemiluminescence was read.

Structure (SMILES) | pIC50 (HIV integrase) | pEC50 (HIV-IIIb)
CN(c1c2c(c(O)c3ncccc13)C(=O)N(Cc1ccc(F)cc1)C2(C)C)S(C)(=O)=O [Compound 71, N-(7-(4-fluorobenzyl)-9-hydroxy-6,6-dimethyl-8-oxo-7,8-dihydro-6H-pyrrolo[3,4-g]quinolin-5-yl)-N-methylmethanesulfonamide] | 6.00 to 7.22 | > 7.22
CN(c1c2c(c(O)c3ncccc13)C(=O)N(Cc1ccc(Cl)c(Cl)c1)C2)S(C)(=O)=O [Compound 197, N-(7-(3,4-dichlorobenzyl)-9-hydroxy-8-oxo-7,8-dihydro-6H-pyrrolo[3,4-g]quinolin-5-yl)-N-methylmethanesulfonamide] | 6.00 to 7.22 | > 7.22
CN(c1c2c(c(O)c3ncccc13)C(=O)N(Cc1ccc(Cl)cc1)C2)S(C)(=O)=O [Compound 183, N-(7-(4-chlorobenzyl)-9-hydroxy-8-oxo-7,8-dihydro-6H-pyrrolo[3,4-g]quinolin-5-yl)-N-methylmethanesulfonamide] | 6.00 to 7.22 | > 7.22
CN(C)CCCS(=O)(=O)N(C)c1c2c(c(O)c3ncccc13)C(=O)N(Cc1ccc(F)cc1)C2 [Compound 44, N-(7-(4-fluorobenzyl)-9-hydroxy-8-oxo-7,8-dihydro-6H-pyrrolo[3,4-g]quinolin-5-yl)-N-methyl-3-(dimethylamino)-propane-1-sulfonamide] | > 7.22 | > 7.22
C[C@@H]1c2c(c(O)c3ncccc3c2N(C)S(C)(=O)=O)C(=O)N1Cc1ccc(F)cc1 (single isomer, unassigned) [Compound 76] | > 7.22 | > 7.22
O=C1c2c(c(N3CCCNC3=O)c3cccnc3c2O)CN1Cc1ccc(F)cc1 [Compound 222, 7-(4-fluorobenzyl)-9-hydroxy-5-(2-oxo-tetrahydropyrimidin-1(2H)-yl)-6,7-dihydropyrrolo[3,4-g]quinolin-8-one] | 6.00 to 7.22 | > 7.22
O=C1c2c(c(N3CCNS3(=O)=O)c3cccnc3c2O)CN1Cc1ccc(F)cc1 [Compound 214] | > 7.22 | > 7.22
CC(C)C(=O)Nc1c2c(c(O)c3ncccc13)C(=O)N(Cc1ccc(F)cc1)C2 [Compound 67, N-(7-(4-fluorobenzyl)-9-hydroxy-8-oxo-7,8-dihydro-6H-pyrrolo[3,4-g]quinolin-5-yl)isobutyramide] | > 7.22 | > 7.22
Cc1nc(C)c(S(=O)(=O)N(C)c2c3c(c(O)c4ncccc24)C(=O)N(Cc2ccc(F)cc2)C3)s1 [Compound 58, N-(7-(4-fluorobenzyl)-9-hydroxy-8-oxo-7,8-dihydro-6H-pyrrolo[3,4-g]quinolin-5-yl)-N,2,4-trimethylthiazole-5-sulfonamide] | 6.00 to 7.22 | > 7.22
CCOC(=O)N(C)c1c2c(c(O)c3ncccc13)C(=O)N(Cc1ccc(F)cc1)C2 [Compound 112, ethyl 7-(4-fluorobenzyl)-9-(hydroxy)-8-oxo-7,8-dihydro-6H-pyrrolo[3,4-g]quinolin-5-yl(methyl)carbamate] | > 7.22 | > 7.22
O=C1c2c(c(N3CCCS3(=O)=O)c3cccnc3c2O)CN1Cc1ccc(F)cc1 [Compound 52, N-(7-(4-fluorobenzyl)-9-hydroxy-8-oxo-7,8-dihydro-6H-pyrrolo[3,4-g]quinolin-5-yl)-N-2-dioxoisothiazolidine] | > 7.22 | > 7.22
CN(c1c2c(c(OCOC(=O)OC3CCC3)c3ncccc13)C(=O)N(Cc1ccc(F)cc1)C2)S(C)(=O)=O [Compound 31, (7-(4-fluorobenzyl)-5-(N-methylmethan-5-ylsulfonamido)-8-oxo-7,8-dihydro-6H-pyrrolo[3,4-g]quinolin-9-yloxy)methyl cyclobutyl carbonate] | < 6.00 | > 7.22
CN(C)C(=O)c1cc(F)ccc1CN1Cc2c(c(O)c3ncccc3c2N(C)S(C)(=O)=O)C1=O [Compound 90, 5-fluoro-2-((9-hydroxy-5-(N-methylmethylsulfonamido)-8-oxo-6H-pyrrolo[3,4-g]quinolin-7(8H)-yl)methyl)-N,N-dimethylbenzamide] | 6.00 to 7.22 | > 7.22
CN(c1c2c(c(O)c3ncccc13)C(=O)N(Cc1ccc(F)cc1)C2)S(=O)(=O)CCN1CCCCC1 [Compound 162, N-(7-(4-fluorobenzyl)-9-hydroxy-8-oxo-7,8-dihydro-6H-pyrrolo[3,4-g]quinolin-5-yl)-N-methyl-2-(piperidin-1-yl)ethanesulfonamide] | 6.00 to 7.22 | 6.00 to 7.22
CS(=O)(=O)Nc1c2c(c(O)c3ncccc13)C(=O)N(Cc1ccc(F)cc1)C2 [Compound 125, N-(7-(4-fluorobenzyl)-9-hydroxy-8-oxo-7,8-dihydro-6H-pyrrolo[3,4-g]quinolin-5-yl)methanesulfonamide] | > 7.22 | 6.00 to 7.22
CCN(CC)CCS(=O)(=O)N(C)c1c2c(c(O)c3ncccc13)C(=O)N(Cc1ccc(F)cc1)C2 [Compound 161, 2-(diethylamino)-N-(7-(4-fluorobenzyl)-9-hydroxy-8-oxo-7,8-dihydro-6H-pyrrolo[3,4-g]quinolin-5-yl)-N-methylethanesulfonamide] | 6.00 to 7.22 | > 7.22
CN(c1c2c(c(O)c3ncccc13)C(=O)N(Cc1cc(F)ccc1F)C2)S(C)(=O)=O [Compound 191, N-(7-(2,5-difluorobenzyl)-9-hydroxy-8-oxo-7,8-dihydro-6H-pyrrolo[3,4-g]quinolin-5-yl)-N-methylmethanesulfonamide] | 6.00 to 7.22 | > 7.22
CN(Cc1ccccc1)S(=O)(=O)N(C)c1c2c(c(O)c3ncccc13)C(=O)N(Cc1ccc(F)cc1)C2 [Compound 135, N′-benzyl-N′-methyl-N-(7-(4-fluorobenzyl)-9-hydroxy-8-oxo-7,8-dihydro-6H-pyrrolo[3,4-g]quinolin-5-yl)-N-methylsulfamide] | 6.00 to 7.22 | 6.00 to 7.22
CN(c1c2c(c(O)c3ncccc13)C(=O)N(Cc1cccc(Cl)c1F)C2)S(C)(=O)=O [Compound 177, N-(7-(3-chloro-2-fluorobenzyl)-9-hydroxy-8-oxo-7,8-dihydro-6H-pyrrolo[3,4-g]quinolin-5-yl)-N-methylmethanesulfonamide] | 6.00 to 7.22 | > 7.22
C[C@H]1c2c(c(O)c3ncccc3c2N(C)S(C)(=O)=O)C(=O)N1Cc1ccc(F)cc1 (single isomer, unassigned) [Compound 75] | > 7.22 | > 7.22
CN(c1c2c(c(O)c3ncccc13)C(=O)N(Cc1ccccn1)C2)S(C)(=O)=O [Compound 94, N-(9-hydroxy-8-oxo-7-(pyridin-2-ylmethyl)-7,8-dihydro-6H-pyrrolo[3,4-g]quinolin-5-yl)-N-methylmethanesulfonamide] | 6.00 to 7.22 | > 7.22
CC1c2c(c(O)c3ncccc3c2N(C)S(C)(=O)=O)C(=O)N1Cc1ccc(F)cc1 (racemic) [Compound 74, N-(7-(4-fluorobenzyl)-9-hydroxy-6-(R and S)-methyl-8-oxo-7,8-dihydro-6H-pyrrolo[3,4-g]quinolin-5-yl)-N-methylmethanesulfonamide] | > 7.22 | > 7.22
CN(c1c2c(c(O)c3ncccc13)C(=O)N(Cc1c(F)ccc(Cl)c1F)C2)S(C)(=O)=O [Compound 185, N-(7-(3-chloro-2,6-difluorobenzyl)-9-hydroxy-8-oxo-7,8-dihydro-6H-pyrrolo[3,4-g]quinolin-5-yl)-N-methylmethanesulfonamide] | 6.00 to 7.22 | > 7.22
CCOC(=O)N(C)c1c2c(c(O)c3ncccc13)C(=O)N(Cc1ccc(F)cc1)C2(C)C [Compound 115, ethyl 7-(4-fluorobenzyl)-9-hydroxy-6,6-dimethyl-8-oxo-7,8-dihydro-6H-pyrrolo[3,4-g]quinolin-5-yl(methyl)carbamate] | 6.00 to 7.22 | < 6.00
CN(C)C(=O)C(=O)N(C)c1c2c(c(O)c3ncccc13)C(=O)N(Cc1ccc(F)cc1)C2 [Compound 62, N1-(7-(4-fluorobenzyl)-9-hydroxy-8-oxo-7,8-dihydro-6H-pyrrolo[3,4-g]quinolin-5-yl)-N1,N2,N2-trimethyloxalamide] | 6.00 to 7.22 | > 7.22
O=C1c2c(c(N3C(=O)CCC3=O)c3cccnc3c2O)CN1Cc1ccc(F)cc1 [Compound 226, 1-(7-(4-fluorobenzyl)-9-hydroxy-8-oxo-7,8-dihydro-6H-pyrrolo[3,4-g]quinolin-5-yl)pyrrolidine-2,5-dione] | > 7.22 | > 7.22
CN(c1c2c(c(O)c3ncccc13)C(=O)N(Cc1ccc(F)cc1)C2)S(C)(=O)=O [Compound 29, N-(7-(4-fluorobenzyl)-9-hydroxy-8-oxo-7,8-dihydro-6H-pyrrolo[3,4-g]quinolin-5-yl)-N-methylmethanesulfonamide] | > 7.22 | > 7.22
CC(=O)Nc1nc(C)c(S(=O)(=O)N(C)c2c3c(c(O)c4ncccc24)C(=O)N(Cc2ccc(F)cc2)C3)s1 [Compound 160, N-(5-(N-(7-(4-fluorobenzyl)-9-hydroxy-8-oxo-7,8-dihydro-6H-pyrrolo[3,4-g]quinolin-5-yl)-N-methylsulfamoyl)-4-methylthiazol-2-yl)acetamide] | 6.00 to 7.22 | 6.00 to 7.22
